Assay results: US4689326A, “Process for controlling hyperlipidemia” (Research Corporation, priority 1985, dated 1987)

Key:
Assay type in all cases: in vivo, CF1 male mice
[1] = test system: serum cholesterol; test: Testing of Normal Mice: serum cholesterol (modified Liebermann-Burchard), Example 7; details: Mus musculus, 20 mg/kg/day ip
Experimental: (§1) Suspensions of Compounds Nos. 1-9 were prepared wherein the compounds were suspended in an aqueous 1% carboxymethylcelluose solution, homogenized and administered to CF1 male mice, each weighing approximately 25 grams, intraperitoneally on a daily basis for 16 days. The dosage was, with the exception of one compound, 20 milligrams of the active compound per kilogram of mouse weight per day. On days 9 and 16 blood was obtained by tail vein bleeding. The blood serum was separated by centrifugation for three minutes. Serum cholesterol levels were determined by a modification of the Liebermann-Burchard reaction. Serum was also collected on day 16 and the triglycerides content was determined by a commercial kit, BioDynamics/bnc Single Vile Colorimetric Method 348201. Each compound was tested on a group of six mice.
(§2) In addition to the above-described treated mice, untreated control groups of six mice were similarly tested on days 9 and 14 or 16 to determine their serum cholesterol and triglycerides blood levels. Table 5 reports the percent control, based on the serum cholesterol and serum triglyceride levels of the treated mice compared to the untreated controls. Table 5 also includes the standard deviation indicating the level of confidence of these numbers.
(§3) Example 7 was repeated substituting clofibrate, a compound used in the prior art to lower serum cholesterol and serum triglyceride levels. The clofibrate was administered as a suspension in an aqueous 1% solution of carboxymethylcellulose. However, unlike the compounds of the present invention which were administered at a dosage of 20 mg/kg day, ip, this compound was administered at the elevated concentration of 150 mg/kg day, ip.

[2] = test system: serum triglycerides; test: Hypolipidemic Activity of Compounds 1 and 10-33, Example 13: serum triglycerides; details: Mus musculus, 384 h; 20 mg/kg/day ip, day 16, ± SD; read-out: Serum Triglyceride as a function of control, 16 Day
Experimental: (§4) Compounds 1 and 10-33, identified below in Table 11, were suspended by homogenation in a 1% aqueous solution of carboxymethylcellulose (CMC) such that a 0.2 ml dosage supplied a concentration of 20 mg/kg of the active compounds. The suspending agent, the 1% aqueous solution of CMC, was utilized as a control, applied in the same quantity, 0.2 ml. CF1 male mice, maintained in groups of six, were fed Wayne Blox [trademark] laboratory animal show ad libitum with water. The mice, which each weighed approximately 25 g, were administered the drugs interperitoneally at approximately the same time. On days 9 and 16 approximately […] of blood was taken from each of the animals by tail bleeding. After centrifugation to obtain serum, 25 microliter samples were assayed for total cholesterol utilizing the method of Ness et al. Serum triglyicerides were assayed, using a commercially available BioDynamics/bmc triglyiceride kit, on blood collected on the 16th day. By comparison to standards the milligram percent of cholesterol and milligram per deciliter concentration of triglicerides were calculated. Treated values were expressed as a percent of the level of the control animals plus or minus the standard deviation. The "T" values were obtained using the Student's "t" test.

[3] = test system: serum triglycerides; test: Testing of Normal Mice: serum triglycerides (BioDynamics kit), Example 7; details: Mus musculus, 384 h; 20 mg/kg/day ip, day 16, ± SD
Experimental: as §1, §2, §3

[4] = test system: serum cholesterol; test: Hypolipidemic Activity of Compounds 1 and 10-33, Example 13: serum cholesterol; details: Mus musculus, 20 mg/kg/day ip
Experimental: as §4

With `O=c1[nH]c(=O)c2ccccc2c2ccccc12` [Compound 1, Diphenimide] the response vs control in vivo at 20 mg/kg ([1]; 216 h, day 9, ± SD, read-out: Serum Cholesterol Control, % Day 9) was 81 ± 7%, the response vs control in vivo at 20 mg/kg ([1]; 384 h, day 16, ± SD, read-out: Serum Cholesterol Control, % Day 16) was 82 ± 4% and the response vs control in vivo at 20 mg/kg [2] was 81 ± 7%. For the same molecule, the response vs control in vivo at 20 mg/kg [3] was 81 ± 7%, the response vs control in vivo at 20 mg/kg ([4]; 216 h, day 9, ± SD, read-out: Serum Cholesterol as a function of control, 9 Day) was 81 ± 7% and the response vs control in vivo at 20 mg/kg ([4]; 384 h, day 16, ± SD, read-out: Serum Cholesterol as a function of control, 16 Day) was 82 ± 4%.
